The experiment concerns the target human APJ receptor (Homo sapiens (Human), UniProt P35414). Briefly: Intracellular cAMP accumulation assay (APJ hcAMP, HTRF). The note with it: human APJ, cAMP accumulation; read-out: Human APJ cAMP EC50 Potency range. It counts as cell-based. In short, it runs like this: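 HEK293 cells stably expressing human APJ, 5,000 per well, incubated 30 min at rt with compound, […] and 2 μM forskolin. cAMP measured by HTRF against a cAMP standard curve as inhibition of forskolin-driven production. EC50 from variable-slope sigmoidal fit.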
Background: Cyclic AMP is a second messenger, typically raised through Gs and lowered through Gi signalling.

Sequence of human APJ receptor (P35414 whole entry): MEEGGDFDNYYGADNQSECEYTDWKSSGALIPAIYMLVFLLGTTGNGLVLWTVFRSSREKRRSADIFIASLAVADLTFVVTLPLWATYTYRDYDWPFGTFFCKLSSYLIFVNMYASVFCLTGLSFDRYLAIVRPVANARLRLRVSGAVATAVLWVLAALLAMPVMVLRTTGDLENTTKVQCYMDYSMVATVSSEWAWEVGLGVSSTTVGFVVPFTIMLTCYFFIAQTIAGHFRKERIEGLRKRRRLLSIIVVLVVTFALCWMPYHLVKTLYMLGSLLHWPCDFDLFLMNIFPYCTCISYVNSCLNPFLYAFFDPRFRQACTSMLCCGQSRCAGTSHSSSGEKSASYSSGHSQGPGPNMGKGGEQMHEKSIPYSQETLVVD

In general, EC50 refers to the midpoint of the concentration-response curve. Regarding `CCCCc1nc(=O)c(S(=O)(=O)c2ccc(-c3ccc(F)nc3)cc2)c(O)n1[C@@H](CC)c1ccccc1` [Example 289, 2-butyl-5-[4-(6-fluoropyridin-3-yl)benzenesulfonyl]-6-hydroxy-1-[(1S)-1-phenylpropyl]-1,4-dihydropyrimidin-4-one], the EC50 was in the range of 0.01 to 10 nM.

Regarding `CCCCc1nc(=O)c(S(=O)(=O)c2ccc(-c3cncc(F)c3)cc2)c(O)n1[C@@H](CC)c1ccccc1` [Example 290, 2-butyl-5-[4-(5-fluoropyridin-3-yl)benzenesulfonyl]-6-hydroxy-1-[(1S)-1-phenylpropyl]-1,4-dihydropyrimidin-4-one], the EC50 fell in the range of 0.01 to 10 nM.

On to `CCCCc1nc(=O)c(S(=O)(=O)c2ccc(-c3ccncc3C)cc2)c(O)n1[C@@H](CC)c1ccccc1` [Example 291, 2-butyl-6-hydroxy-5-[4-(3-methylpyridin-4-yl)benzenesulfonyl]-1-[(1S)-1-phenylpropyl]-1,4-dihydropyrimidin-4-one], for which the EC50 was 0.01 to 10 nM.

For the compound `CCCCc1nc(=O)c(S(=O)(=O)c2ccc(-c3cnc(C)nc3)cc2)c(O)n1[C@@H](CC)c1ccccc1` [Example 292, 2-butyl-6-hydroxy-5-[4-(2-methylpyrimidin-5-yl)benzenesulfonyl]-1-[(1S)-1-phenylpropyl]-1,4-dihydropyrimidin-4-one], the EC50 was in the range of 10 to 100 nM.

For the compound `CCCCc1nc(=O)c(S(=O)(=O)c2ccc(-c3cncc(C)c3)cc2)c(O)n1[C@@H](CC)c1ccccc1` [Example 293, 2-butyl-6-hydroxy-5-[4-(5-methylpyridin-3-yl)benzenesulfonyl]-1-[(1S)-1-phenylpropyl]-1,4-dihydropyrimidin-4-one], the EC50 was in the range of 0.01 to 10 nM.

Take `COC[C@@H](c1ccccc1)n1c(COC(C)C)nc(=O)c(S(=O)(=O)c2ccc(Br)c(F)c2)c1O` [Example 294, 5-(4-bromo-3-fluorobenzenesulfonyl)-6-hydroxy-1-[(1R)-2-methoxy-1-phenylethyl]-2-[(propan-2-yloxy)methyl]-1,4-dihydropyrimidin-4-one]: the EC50 lay in the range of 0.01 to 10 nM.

For the compound `COC[C@@H](c1ccccc1)n1c(COC(C)C)nc(=O)c(S(=O)(=O)c2ccc(Br)cc2)c1O` [Example 295, 5-(4-bromobenzenesulfonyl)-6-hydroxy-1-[(1R)-2-methoxy-1-phenylethyl]-2-[(propan-2-yloxy)methyl]-1,4-dihydropyrimidin-4-one], the EC50 was 10 to 100 nM.

With `CCOCc1nc(=O)c(S(=O)(=O)c2ccc(Br)cc2)c(O)n1[C@@H](COC)c1ccccc1` [Example 296, 5-(4-bromobenzenesulfonyl)-2-(ethoxymethyl)-6-hydroxy-1-[(1R)-2-methoxy-1-phenylethyl]-1,4-dihydropyrimidin-4-one], the EC50 fell in the range of 100 to 300 nM.

Regarding `CCOCc1nc(=O)c(S(=O)(=O)c2ccc(Br)cc2)c(O)n1[C@H]1CCc2ccccc21` [Example 297, 5-(4-bromobenzenesulfonyl)-1-[(1S)-2,3-dihydro-1H-inden-1-yl]-2-(ethoxymethyl)-6-hydroxy-1,4-dihydropyrimidin-4-one], the EC50 was 10 to 100 nM.

Consider `CCOCc1nc(=O)c(S(=O)(=O)c2ccc(Br)c(F)c2)c(O)n1C(COC)c1cccc(F)c1` (stereo not drawn) [Example 298, 5-(4-bromo-3-fluorobenzenesulfonyl)-2-(ethoxymethyl)-1-[1-(3-fluorophenyl)-2-methoxyethyl]-6-hydroxy-1,4-dihydropyrimidin-4-one], for which the EC50 was 0.01 to 10 nM.

Consider `CC(C)OCc1nc(=O)c(S(=O)(=O)c2ccc(Br)cc2)c(O)n1[C@H]1CCc2ccccc21` [Example 299, 5-(4-bromobenzenesulfonyl)-1-[(1S)-2,3-dihydro-1H-inden-1-yl]-6-hydroxy-2-[(propan-2-yloxy)methyl]-1,4-dihydropyrimidin-4-one], for which the EC50 lay within 10 to 100 nM.

For the compound `CCOCc1nc(=O)c(S(=O)(=O)c2ccc(Br)c(F)c2)c(O)n1[C@@H](COC)c1ccccc1` [Example 300, 5-(4-bromo-3-fluorobenzenesulfonyl)-2-(ethoxymethyl)-6-hydroxy-1-[(1R)-2-methoxy-1-phenylethyl]-1,4-dihydropyrimidin-4-one], the EC50 fell in the range of 0.01 to 10 nM.

These data come from US10508104B2, “6-hydroxy-5-(phenyl/heteroarylsulfonyl)pyrimidin-4(1H)-one as APJ agonists” (Bristol-Myers Squibb Company, priority 2016, dated 2019).
